Reference: patent publication US20130344026A1, “Dimeric Smac Mimetics” (priority 2009, published 2013)
Read-outs that look alike come from different tables or passages of the source.

System: HCC461
Test: cell viability assay in HCC461, compound alone
Format: cell-based
[1] = HCC461, HCC461 cells, compound alone, read-out: IC50 (uM) in cell viability assay in HCC461
[2] = HCC461, HCC461, Tables 15-18, read-out: IC50 (uM) in cell viability assay in HCC461
[3] = HCC461, HCC461, Tables 6-9, read-out: IC50 (μM) in cell viability assay in HCC461

Row | SMILES | IC50 [1] [µM] | IC50 [2] [µM] | further results
1 | CN[C@@H](C)C(=O)N[C@H](C(=O)N1C[C@@H](NC(=O)c2ccc(-c3ccc(C(=O)N[C@H]4C[C@@H](C(=O)N[C@@H]5CCCc6ccccc65)N(C(=O)[C@@H](NC(=O)[C@H](C)NC)C(C)(C)C)C4)cc3)cc2)C[C@H]1C(=O)N[C@@H]1CCCc2ccccc21)C(C)(C)C [Compound P3-37] | 0.008 |  | 
2 | CN[C@@H](C)C(=O)N[C@H](C(=O)N1CCC[C@H]1Cn1nnnc1S(=O)(=O)c1ccc(C)cc1)[C@@H](C)OCC#CC#CCO[C@H](C)[C@H](NC(=O)[C@H](C)NC)C(=O)N1CCC[C@H]1Cn1nnnc1S(=O)(=O)c1ccc(C)cc1 [Compound P2-22] |  | 0.18 | 
3 | CN[C@@H](C)C(=O)N[C@@H](CCCCCC[C@H](NC(=O)[C@H](C)NC)C(=O)N1CCC[C@H]1C(=O)NCc1ccc(F)cc1)C(=O)N1CCC[C@H]1C(=O)NCc1ccc(F)cc1 [Compound P2-7] |  | 0.17 | 
4 | CN[C@@H](C)C(=O)N[C@@H](CC#CC#CC[C@H](NC(=O)[C@H](C)NC)C(=O)N1CSC[C@H]1C(=O)N[C@@H]1CCCc2ccccc21)C(=O)N1CSC[C@H]1C(=O)N[C@@H]1CCCc2ccccc21 [Compound 88] |  |  | IC50 [3]: 0.188 µM
5 | CN[C@@H](C)C(=O)N[C@H](C(=O)N1CCC[C@H]1C(=O)N[C@H](CNC(=O)[C@H]1CC[C@@](C)(C(=O)NC[C@@H](NC(=O)[C@@H]2CCCN2C(=O)[C@@H](NC(=O)[C@H](C)NC)C(C)(C)C)c2ccccc2)C1(C)C)c1ccccc1)C(C)(C)C [Compound P4-15] |  | 0.085 | 
6 | CN[C@@H](C)C(=O)N[C@H](C(=O)N1CC[C@H](NC(=O)c2cccc(C(=O)N[C@H]3C[C@@H](C(=O)N[C@@H]4CCCc5ccccc54)N(C(=O)[C@@H](NC(=O)[C@H](C)NC)C(C)(C)C)C3)c2)C1)C(C)(C)C [Compound 131] |  |  | IC50 [3]: 0.642 µM
7 | CN[C@@H](C)C(=O)N[C@@H](CCNC(=O)c1cc(C(=O)NCC[C@H](NC(=O)[C@H](C)NC)C(=O)N2CCC[C@H]2C(=O)N[C@@H]2CCCc3ccccc32)[nH]n1)C(=O)N1CCC[C@H]1C(=O)N[C@@H]1CCCc2ccccc21 [Compound P2-28] |  | 0.163 | 
8 | CN[C@@H](C)C(=O)N[C@H](C(=O)N1CCC[C@H]1C(=O)N[C@H](C(=O)NCCC#CC#CCCNC(=O)[C@@H](NC(=O)[C@@H]1CCCN1C(=O)[C@@H](NC(=O)[C@H](C)NC)C(C)(C)C)C1CCCCC1)C1CCCCC1)C(C)(C)C [Compound P4-1] |  | 0.08 | 
9 | CN[C@@H](C)C(=O)N[C@H](C(=O)N1C[C@@H](NC(=O)C2CCCC(C(=O)N[C@H]3C[C@@H](C(=O)NC4CCCc5ccccc54)N(C(=O)[C@@H](NC(=O)[C@H](C)NC)C(C)(C)C)C3)C2)CC1C(=O)N[C@@H]1CCCc2ccccc21)C(C)(C)C (stereo partly drawn) [Compound P3-28] |  |  | IC50 (HCC461 cells, compound alone, read-out: IC50 (uM) in cell viability assay in HCC461): 0.019 µM
10 | CN[C@@H](C)C(=O)N[C@H](C(=O)N1C[C@@H](NC(=O)c2ccc3cc(C(=O)N[C@H]4C[C@@H](C(=O)N[C@@H]5CCCc6ccccc65)N(C(=O)[C@@H](NC(=O)[C@H](C)NC)C(C)(C)C)C4)ccc3c2)C[C@H]1C(=O)N[C@@H]1CCCc2ccccc21)C(C)(C)C [Compound P3-38] | 0.007 |  | 
11 | CN[C@@H](C)C(=O)NC(C(=O)N1CCC[C@H]1C(=O)NC1CCCc2ccccc21)c1ccc(-c2ccc(C(NC(=O)[C@H](C)NC)C(=O)N3CCC[C@H]3C(=O)NC3CCCc4ccccc43)cc2)cc1 (stereo partly drawn) [Compound P2-2] |  | 0.098 | 
12 | CN[C@@H](C)C(=O)N[C@H](C(=O)N1CCC[C@H]1C(=O)N[C@H](CNC(=O)C1CCCC(C(=O)NC[C@@H](NC(=O)[C@@H]2CCCN2C(=O)[C@@H](NC(=O)[C@H](C)NC)C(C)(C)C)C2CCCCC2)C1)C1CCCCC1)C(C)(C)C (single isomer, unassigned) [Compound P4-4] |  |  | IC50 (HCC461, Tables 15-18, read-out: IC50 (uM) in cell viability assay in HCC461): 0.004 µM
13 | CN[C@@H](C)C(=O)N[C@H]1CC#CC#CC[C@H](NC(=O)[C@H](C)NC)C(C)N2C[C@H](C[C@H]2C(=O)N[C@@H]2CCCc3ccccc32)NC(=O)c2ccc(cc2)C(=O)N[C@H]2C[C@@H](C(=O)N[C@@H]3CCCc4ccccc43)N(C2)C1C (stereo partly drawn) [Compound P3-8] | 0.081 |  | 
14 | C[C@H](NC(=O)OCc1ccc([N+](=O)[O-])cc1)C(=O)NC(C(=O)N1C[C@@H](NC(=O)c2cccc(C(=O)N[C@H]3C[C@@H](C(=O)N[C@@H]4CCCc5ccccc54)N(C(=O)[C@@H](NC(=O)[C@H](C)NC(=O)OCc4ccc([N+](=O)[O-])cc4)C(C)(C)C)C3)c2)CC1C(=O)N[C@@H]1CCCc2ccccc21)C(C)(C)C (stereo partly drawn) [Compound 111] |  |  | IC50 (HCC461, Tables 6-9, read-out: IC50 (μM) in cell viability assay in HCC461): > 30 µM
15 | CN[C@@H](C)C(=O)N[C@@H](CCCCNC(=O)c1cccc(C(=O)N[C@H]2C[C@@H](C(=O)N[C@@H]3CCCc4ccccc43)N(C(=O)[C@@H](NC(=O)[C@H](C)NC)C(C)(C)C)C2)c1)C(=O)N1CCC[C@H]1C(=O)N[C@@H]1CCCc2ccccc21 [Compound 134] |  |  | IC50 [3]: 0.058 µM
16 | CN[C@@H](C)C(=O)N[C@@H](CCC(=O)O)C(=O)N1C[C@@H](NC(=O)c2cccc(C(=O)N[C@H]3C[C@@H](C(=O)N[C@@H]4CCCc5ccccc54)N(C(=O)[C@@H](NC(=O)[C@H](C)NC)C(C)(C)C)C3)c2)CC1C(=O)N[C@H](C)c1ccccc1 (stereo partly drawn) [Compound 147] |  |  | IC50 [3]: 0.185 µM
17 | CC[C@H](NC)C(=O)N[C@@H](CCCCCC[C@H](NC(=O)[C@H](CC)NC)C(=O)N1CCC[C@H]1C(=O)N[C@@H]1CCCc2ccccc21)C(=O)N1CCC[C@H]1C(=O)N[C@@H]1CCCc2ccccc21 [Compound P2-12] |  | 0.021 | 
18 | CN[C@@H](C)C(=O)NC(C(=O)N1C[C@@H](NC(=O)c2cccc(C(=O)N[C@H]3C[C@@H](C(=O)N[C@H](C)c4ccccc4)N(C(=O)[C@H](CCC(=O)OC)NC(=O)[C@@H](N)CO)C3)c2)CC1C(=O)N[C@@H]1CCCc2ccccc21)C(C)(C)C (stereo partly drawn) [Compound 153] |  |  | IC50 [3]: 27.6 µM

Further lines, with some results ahead:

Row | IC50 [1] [µM] | IC50 [2] [µM] | SMILES | further results
19 | 0.072 |  | CC[C@H](C)C(NC(=O)[C@H](C)NC)C(=O)N1C[C@@H](NC(=O)c2cc(OC)cc(C(=O)N[C@H]3C[C@@H](C(=O)N[C@H](C)c4ccccc4)N(C(=O)C(NC(=O)[C@H](C)NC)[C@@H](C)CC)C3)c2)C[C@H]1C(=O)NC(C)c1ccccc1 (stereo partly drawn) [Compound P3-74] | 
20 | 0.1 |  | CN[C@@H](C)C(=O)N[C@H](C(=O)N1C[C@@H](NC(=O)C(O)CC(=O)N[C@H]2C[C@@H](C(=O)NC3CCCc4ccccc43)N(C(=O)[C@@H](NC(=O)[C@H](C)NC)C(C)(C)C)C2)CC1C(=O)N[C@@H]1CCCc2ccccc21)C(C)(C)C (stereo partly drawn) [Compound P3-84] | 
21 | 0.007 |  | CN[C@@H](C)C(=O)N[C@H](C(=O)N1C[C@@H](Oc2cccc(O[C@H]3C[C@@H](C(=O)NC4CCCc5ccccc54)N(C(=O)[C@@H](NC(=O)[C@H](C)NC)C(C)(C)C)C3)c2)C[C@H]1C(=O)NC1CCCc2ccccc21)C(C)(C)C (stereo partly drawn) [Compound P3-25] | 
22 |  | 0.268 | CN[C@@H](C)C(=O)N[C@@H](CCCCNC(=O)c1cc(C(=O)NCCCC[C@H](NC(=O)[C@H](C)NC)C(=O)N2CCC[C@H]2C(=O)NC(c2ccccc2)c2ccccc2)[nH]n1)C(=O)N1CCC[C@H]1C(=O)NC(c1ccccc1)c1ccccc1 [Compound P2-31] | 
23 | 0.058 |  | CN[C@@H](C)C(=O)N[C@H](C(=O)N1C[C@@H](NC(=O)c2nn[nH]c2C(=O)N[C@H]2C[C@@H](C(=O)NC3CCCc4ccccc43)N(C(=O)[C@@H](NC(=O)[C@H](C)NC)C(C)(C)C)C2)CC1C(=O)N[C@@H]1CCCc2ccccc21)C(C)(C)C (stereo partly drawn) [Compound P3-26] | 
24 | 0.07 |  | CN[C@@H](C)C(=O)N[C@H](C(=O)N1C[C@@H](NC(=O)CCCC(=O)N[C@H]2C[C@@H](C(=O)NC3c4ccccc4-c4ccccc43)N(C(=O)[C@@H](NC(=O)[C@H](C)NC)C(C)(C)C)C2)C[C@H]1C(=O)NC1c2ccccc2-c2ccccc21)C(C)(C)C [Compound P3-3] | 
